Results: patent publication US8658604B2, “Template-fixed beta-hairpin peptidomimetics with protease inhibitory activity” (Polyphor Ltd, priority 2005, dated 2014)
Where a SMILES comes first, the peptide text is derived from it.

Biological target: T1, Elastase from human neutrophils (Homo sapiens, UniProt P08246)
T1 sequence (P08246 30-267): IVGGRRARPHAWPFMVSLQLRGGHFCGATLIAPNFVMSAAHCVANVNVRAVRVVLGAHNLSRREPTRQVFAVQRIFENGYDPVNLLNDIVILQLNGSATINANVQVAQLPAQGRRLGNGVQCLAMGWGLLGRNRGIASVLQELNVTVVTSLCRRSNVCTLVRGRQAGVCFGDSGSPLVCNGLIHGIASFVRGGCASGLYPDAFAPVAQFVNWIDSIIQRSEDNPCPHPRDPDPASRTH
Test: Enzymatic assay, elastase
Details: Elastase IC50

SMILES	IC50
C[C@@H]1NC(=O)[C@H]([C@@H](C)O)NC(=O)[C@@H]2CSSC[C@H](NC(=O)[C@H](CCC(N)=O)NC(=O)[C@@H]3CCCN3C(=O)[C@@H]3CCCN3C(=O)[C@H](CC3CCCCC3)NC(=O)[C@H](CO)NC1=O)C(=O)N[C@@H](Cc1ccc(O)cc1)C(=O)N1CCC[C@@H]1C(=O)N1CCC[C@H]1C(=O)N[C@@H](CCc1ccccc1)C(=O)N2 [Ex. 162] (HELM PEPTIDE1{[O=C([C@H](CCc1ccccc1)N[*:1])[*:2]].C.T.A.S.[Cha].P.P.Q.C.Y.[dP].P}$PEPTIDE1,PEPTIDE1,2:R3-10:R3|PEPTIDE1,PEPTIDE1,1:R1-13:R2$$$V2.0)	12.5 nM
CCCCCCCC[C@@H]1NC(=O)[C@@H]2CCCN2C(=O)[C@H]2CCCN2C(=O)[C@H](Cc2ccccc2)NC(=O)[C@@H]2CSSC[C@H](NC1=O)C(=O)N[C@@H]([C@@H](C)O)C(=O)N[C@@H](C)C(=O)N[C@@H](CO)C(=O)N[C@@H]([C@@H](C)CC)C(=O)N1CCC[C@H]1C(=O)N1CCC[C@H]1C(=O)N[C@@H](CCC(N)=O)C(=O)N2 [Ex. 145] (HELM PEPTIDE1{[CCCCCCCC[C@H](N[*:1])C(=O)[*:2]].C.T.A.S.I.P.P.Q.C.F.[dP].P}$PEPTIDE1,PEPTIDE1,2:R3-10:R3|PEPTIDE1,PEPTIDE1,1:R1-13:R2$$$V2.0)	14 nM
CCCC[C@@H]1NC(=O)[C@@H]2CCCN2C(=O)[C@H]2CCCN2C(=O)[C@H](Cc2ccc(O)cc2)NC(=O)[C@H](CCCNC(=N)N)NC(=O)[C@H](CCC(N)=O)NC(=O)[C@@H]2CCCN2C(=O)[C@@H]2CCCN2C(=O)[C@H]([C@@H](C)CC)NC(=O)[C@H](CO)NC(=O)[C@H](C)NC(=O)[C@H]([C@@H](C)O)NC(=O)[C@H](CCC(N)=O)NC1=O [Ex. 107] (HELM PEPTIDE1{[Nle].Q.T.A.S.I.P.P.Q.R.Y.[dP].P}$PEPTIDE1,PEPTIDE1,1:R1-13:R2$$$V2.0)	51 nM
CCCC[C@@H]1NC(=O)[C@H](CCC(N)=O)NC(=O)[C@H]2CCCN2C(=O)[C@H](CCC(N)=O)NC(=O)[C@@H]2CSSC[C@H](NC1=O)C(=O)N[C@@H]([C@@H](C)O)C(=O)N[C@@H](C)C(=O)N[C@@H](CO)C(=O)N[C@@H](CC1CCCCC1)C(=O)N1CCC[C@H]1C(=O)N1CCC[C@H]1C(=O)N[C@@H](CCC(N)=O)C(=O)N2 [compound 164] (HELM PEPTIDE1{[Nle].C.T.A.S.[Cha].P.P.Q.C.Q.[dP].Q}$PEPTIDE1,PEPTIDE1,2:R3-10:R3|PEPTIDE1,PEPTIDE1,1:R1-13:R2$$$V2.0)	24 nM
CCCC[C@@H]1NC(=O)[C@@H]2CCCN2C(=O)[C@H]2CCCN2C(=O)[C@H](Cc2ccc(O)cc2)NC(=O)[C@H](CCSC)NC(=O)[C@H](CCC(N)=O)NC(=O)[C@@H]2CCCN2C(=O)[C@@H]2CCCN2C(=O)[C@H]([C@@H](C)CC)NC(=O)[C@H](CO)NC(=O)[C@H](C)NC(=O)[C@H]([C@@H](C)O)NC(=O)[C@H]([C@@H](C)O)NC1=O [Ex. 108] (HELM PEPTIDE1{[Nle].T.T.A.S.I.P.P.Q.M.Y.[dP].P}$PEPTIDE1,PEPTIDE1,1:R1-13:R2$$$V2.0)	31 nM
CCCCCCCC[C@@H]1NC(=O)[C@H](CO)NC(=O)[C@H](C)NC(=O)[C@H]([C@@H](C)O)NC(=O)[C@H]([C@@H](C)O)NC(=O)[C@H](CCCC)NC(=O)[C@@H]2CCCN2C(=O)[C@H]2CCCN2C(=O)[C@H](Cc2ccc(O)cc2)NC(=O)[C@H](CCC(N)=O)NC(=O)[C@H](CCC(N)=O)NC(=O)[C@@H]2CCCN2C(=O)[C@@H]2CCCN2C1=O [Ex. 135] (HELM PEPTIDE1{[Nle].T.T.A.S.[CCCCCCCC[C@H](N[*:1])C(=O)[*:2]].P.P.Q.Q.Y.[dP].P}$PEPTIDE1,PEPTIDE1,1:R1-13:R2$$$V2.0)	23 nM
CCCC[C@@H]1NC(=O)[C@@H]2CCCN2C(=O)[C@H]2CCCN2C(=O)[C@H](Cc2ccc(O)cc2)NC(=O)[C@@H]2CSSC[C@H](NC1=O)C(=O)N[C@@H]([C@@H](C)O)C(=O)N[C@@H]([C@@H](C)O)C(=O)N[C@@H](CO)C(=O)N[C@@H]([C@@H](C)CC)C(=O)N1CCC[C@H]1C(=O)N1CCC[C@H]1C(=O)N[C@@H](Cc1ccc(O)cc1)C(=O)N2 [Ex. 77] (HELM PEPTIDE1{[Nle].C.T.T.S.I.P.P.Y.C.Y.[dP].P}$PEPTIDE1,PEPTIDE1,2:R3-10:R3|PEPTIDE1,PEPTIDE1,1:R1-13:R2$$$V2.0)	68 nM
